Experimental data published in BindingDB's records for patent US12473289 (Amgen, 2025).

These compounds were tested against Acyl-CoA (8-3)-desaturase (Homo sapiens, UniProt O60427) (assay: Inhibitory Activity using DGLA-CoA and Arachidonyl-CoA Mass Spectrometric Assays).
Description: Membrane preparations of D5D-overexpressing HEK293 6E cells were prepared in which the total protein concentration was 5.6 mg/mL.

Acyl-CoA (8-3)-desaturase, sequence (O60427 whole entry): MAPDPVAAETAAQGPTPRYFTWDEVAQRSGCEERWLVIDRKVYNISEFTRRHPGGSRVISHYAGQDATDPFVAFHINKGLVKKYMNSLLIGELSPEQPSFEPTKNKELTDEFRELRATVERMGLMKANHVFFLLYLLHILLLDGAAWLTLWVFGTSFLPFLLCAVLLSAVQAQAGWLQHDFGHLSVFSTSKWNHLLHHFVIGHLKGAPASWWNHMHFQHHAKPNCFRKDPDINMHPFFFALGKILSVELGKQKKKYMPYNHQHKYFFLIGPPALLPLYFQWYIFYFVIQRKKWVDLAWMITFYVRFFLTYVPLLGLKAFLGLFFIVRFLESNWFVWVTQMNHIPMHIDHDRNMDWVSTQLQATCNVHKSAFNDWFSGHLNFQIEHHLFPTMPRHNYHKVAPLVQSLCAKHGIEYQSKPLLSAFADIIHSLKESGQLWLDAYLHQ

SMILES | IC50 [nM]
O=c1c(-c2ccc(OCC(F)(F)F)cc2)c(C(F)(F)F)nc2cc(C(F)F)ccn12 [US12473289, Example 32] | 141
O=C1C(C2C=NN(CC(F)(F)C(F)(F)F)C2)=C(C(F)(F)F)NC2C=C(OCCl)C=NN12 (stereo unspecified) [US12473289, Example 48] | 119
O=c1ccn2c(=O)c(-c3cnn(CC(F)(F)C(F)(F)F)c3)c(C(F)(F)F)[nH]c2c1 [US12473289, Example 18] | 132
COc1ccn2c(=O)c(-c3ccc(OCC(F)(F)F)nc3)c(C(F)(F)F)nc2n1 [US12473289, Example 1-70] | 262
COC1=CC2NC(C(F)(F)F)=C(C3C=NC(OCC(F)(F)F)=NC3)C(=O)N2C=C1 (stereo unspecified) [US12473289, Example 37] | 87.6
COc1ccn2c(=O)c(-c3cnn(-c4cccc(C(F)(F)F)c4)c3)c(C(F)(F)F)nc2c1 [US12473289, Example 1-19] | 345
COC(=O)c1ccn2c(=O)c(-c3ccc(OCC(F)(F)F)cc3)c(C(F)(F)F)nc2c1 [US12473289, Example 1-36] | 199

These reach a lower IC50. Values come first.

IC50 [nM] | SMILES
54.9 | COc1cc2nc(C(F)(F)F)c(-c3cnn(C[C@@H]4CC4(F)F)c3)c(=O)n2cc1F [US12473289, Example 72]
33.5 | O=C1C(C2C=NN(CC(F)(F)C(F)(F)F)C2)=C(C(F)(F)F)NC2C=C(OCF)C=NN12 (stereo unspecified) [US12473289, Example 47]
29.6 | O=c1c(-c2cnn(CCC(F)(F)F)c2)c(C(F)(F)F)nc2cc(OCF)ccn12 [US12473289, Example 17-3]
16.6 | O=C1C(C2C=NN(CC(F)(F)C(F)(F)F)C2)=C(C(F)(F)F)NC2C=C(OCCl)C=CN12 (stereo unspecified) [US12473289, Example 46]
13.1 | COc1ccn2c(=O)c(-c3ccc(OCC4CC4)cc3)c(C(F)(F)F)nc2n1 [US12473289, Example 1-37]
10.4 | CSc1ccn2c(=O)c(-c3ccc(OCC(F)(F)F)cc3)c(C(F)(F)F)nc2c1 [US12473289, Example 1-35]
10.1 | O=C1C(C2C=NN(CC(F)(F)C(F)(F)F)C2)=C(C(F)(F)F)NC2C=C(OCF)C=CN12 (stereo unspecified) [US12473289, Example 45]
6.8 | Nc1ccn2c(=O)c(-c3ccc(OCC(F)(F)F)cc3)c(C(F)(F)F)nc2c1 [US12473289, Example 6-2]
5.9 | COc1ccn2c(=O)c(-c3ccc(OC(F)(F)F)cc3F)c(C(F)(F)F)nc2c1 [US12473289, Example 1-9]
